22 molecules from patent publication US7498347B2, “Hydroxycarbonylphenyl substituted 4-(aminomethyl)-piperidine benzamides as 5HT4 antagonists” (Janssen Pharmaceutica, N.V., priority 2004, dated 2009) can be followed below.

Each structure is given as a SMILES string. Counter-ions that a name gives are not always drawn. Where only a bound is given, the exact number is not on record here.

One data set concerns the target T1, h5-HT4b (Homo sapiens, UniProt Q13639).
T1 construct: expressed in transfected cells; host or cells: HEK 293 (clone 9), membrane preparation
In words: 5HT4 antagonism: [3H]GR113808 binding to membranes of h5-HT4b-HEK 293 clone 9 cells. The settings on record: displacement of [3H]GR113808 0.1 nM, h5-HT4b-HEK 293 membranes, 30 min at 25° C.; read-out: pIC50 (5HT4 antagonistic data) (converted). As for the experimental part: h5-HT4b-HEK 293 clone 9 cells were cultured in 150 mm Petri dishes and washed twice with cold PBS. The cells were then scraped from the plates and suspended in 50 mM Tris-HCl buffer, pH 7.4 and harvested by centrifugation at 23,500 rpm for 10 minutes. The pellet was resuspended in 5 mM Tris-HCl, pH 7.4 and homogenized with an Ultra Turrax homogenizer. The membranes were collected by centrifugation at 30,000 rpm for 20 min, resuspended in 50 mM Tris-HCl pH 7.4 and stored at −80° C. For the experiment, assay mixtures (0.5 ml) contained 50 μl of the tritiated ligand (5-HT4 antagonist [^3H]GR113808 0.1 nM) and 0.4 ml membrane preparation (15 μg protein/ml). 50 μl of 10% DMSO was added for total binding. 50 μl of 1 μM of (+)-trans-(1-butyl-3-hydroxy-4-piperidinyl)methyl 8-amino-7-chloro-2,3-dihydro-1,4-benzodioxin-5-carboxylate (a proprietary 5HT4 agonist of Janssen Pharmaceutica) was added for determination of non-specific binding.
The [^3H]GR113808 assay buffer was 50 mM HEPES-NaOH, pH 7.4. The mixtures were incubated for 30 min at 25° C. The incubation was terminated by filtration over a Unifilter 96 GF/B presoaked in 0.1% polyethylenimine, followed by six washing steps with 50 mM HEPES-NaOH, pH 7.4.

Data set [1] in a line: Metabolic stability in liver microsomes, LC-MS analysis. The format is in vitro ADME. The conditions noted are these: compound 5 μM, microsomes 1 mg/ml, NADPH-generating system, 60 minutes at 37 degrees Celsius. How it is done: Sub-cellular tissue preparations were made according to Gorrod et al. (Xenobiotica 5: 453-462, 1975) by centrifugal separation after mechanical homogenization of tissue. Liver tissue was rinsed in ice-cold 0.1 M Tris-HCl (pH 7.4) buffer to wash excess blood. Tissue was then blotted dry, weighed and chopped coarsely using surgical scissors. The tissue pieces were homogenized in 3 volumes of ice-cold 0.1 M phosphate buffer (pH 7.4).
Tissue homogenates were centrifuged at 9000×g for 20 minutes at 4° C. The resulting supernatant was stored at −80° C. and is designated ‘S9’.
The S9 fraction can be further centrifuged at 100.000×g for 60 minutes (4° C.). The resulting supernatant was carefully aspirated, aliquoted and designated ‘cytosol’. The pellet was re-suspended in 0.1 M phosphate buffer (pH 7.4) in a final volume of 1 ml per 0.5 g original tissue weight and designated ‘microsomes’.
All sub-cellular fractions were aliquoted, immediately frozen in liquid nitrogen and stored at −80° C. until use.
For the samples to be tested, the incubation mixture contained PBS (0.1M), compound (5 μM), microsomes (1 mg/ml) and a NADPH-generating system (0.8 mM glucose-6-phosphate, 0.8 mM magnesium chloride and 0.8 Units of glucose-6-phosphate dehydrogenase). Control samples contained the same material but the microsomes were replaced by heat inactivated (10 minutes at 95 degrees Celsius) microsomes. Recovery of the compounds in the control samples was always 100%.
The mixtures were preincubated for 5 minutes at 37 degrees Celsius. The reaction was started at time point zero (t=0) by addition of 0.8 mM NADP and the samples were incubated for 60 minutes (t=60). The reaction was terminated by the addition of 2 volumes of DMSO. Then the samples were centrifuged for 10 minutes at 900×g and the supernatants were stored at room temperature for no longer as 24 hours before analysis. All incubations were performed in duplo. Analysis of the supernatants was performed with LC-MS analysis. Elution of the samples was performed on a Xterra MS C18 (50×4.6 mm, 5 μm, Waters, US). An Alliance 2790 (Supplier: Waters, US) HPLC system was used. Elution was with buffer A (25 mM ammoniumacetate (pH 5.2) in H2O/acetonitrile (95/5)), solvent B being acetonitrile and solvent C methanol at a flow rate of 2.4 ml/min. The gradient employed was increasing the organic phase concentration from 0% over 50% B and 50% C in 5 min up to 100% B in 1 minute in a linear fashion and organic phase concentration was kept stationary for an additional 1.5 minutes. Total injection volume of the samples was 25 μl.
A Quatro triple quadrupole mass spectrometer fitted with and ESP source was used as detector. The source and the desolvation temperature were set at 120 and 350° C. respectively and nitrogen was used as nebuliser and drying gas. Data were acquired in positive scan mode (single ion reaction). Cone voltage was set at 10 V and the dwell time was 1 second.
Metabolic stability was expressed as % metabolism of the compound after 60 minutes (equation given as example) of incubation in the presence of active microsomes (E(act))
(In general: Liver microsomes are vesicles of endoplasmic reticulum, rich in cytochrome P450 enzymes.)

T1 sequence (Q13639 whole entry): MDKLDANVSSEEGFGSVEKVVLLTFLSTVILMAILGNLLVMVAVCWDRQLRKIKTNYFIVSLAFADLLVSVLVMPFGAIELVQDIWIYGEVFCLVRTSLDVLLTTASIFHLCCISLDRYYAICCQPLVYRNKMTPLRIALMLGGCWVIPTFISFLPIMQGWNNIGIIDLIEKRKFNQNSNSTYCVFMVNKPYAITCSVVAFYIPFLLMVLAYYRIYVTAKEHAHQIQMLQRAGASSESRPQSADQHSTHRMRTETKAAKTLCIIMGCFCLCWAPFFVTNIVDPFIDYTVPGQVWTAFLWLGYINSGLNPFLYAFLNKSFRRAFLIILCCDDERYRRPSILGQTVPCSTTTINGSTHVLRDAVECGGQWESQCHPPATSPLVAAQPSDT

As a reminder, the melting point is the temperature of the solid-liquid transition. Molecule `O=C(O)c1ccc(OCCCN2CCC(CNC(=O)c3cc(Cl)c(Cl)c4c3OCCCO4)C(O)C2)cc1` (stereo not shown) (as salt: HCl) [compound 16] gave a melting point of 256 °C.

Regarding `Cc1ccc(C(=O)NC[C@@H]2CCN(CCOc3ccc(C(=O)O)cc3)C[C@H]2O)c2c1OCCCO2` (hydrate or solvate) [compound 8], the melting point is more than 120 °C.

`O=C(O)c1ccc(OCCCN2CC[C@@H](CNC(=O)c3cc(Cl)c(Br)c4c3OCCCO4)[C@H](O)C2)cc1` (relative stereo) (as salt: HCl) (hydrate or solvate) [compound 17] registered a melting point of 268 °C.

As to `O=C(O)c1ccccc1OCCCN1CC[C@@H](CNC(=O)c2cc(Cl)cc3c2OCCCO3)[C@H](O)C1` (relative stereo) [compound 7], the melting point stood at 148 °C. Moreover, the IC50 on h5-HT4b was 79.4 nM. Further, the “% metabolized (% metabolised compound after 60 minutes)” value (“% metabolized” for short) in data set [1] amounted to 14%.

With `Cc1cc2c(c(C(=O)NC[C@@H]3CCN(CCCOc4ccc(C(=O)O)cc4)C[C@H]3O)c1)OCCCO2` (relative stereo) [compound 13], the melting point turned out to be 118 °C. For the same molecule, the IC50 at h5-HT4b is 20.9 nM.

Consider `O=C(O)c1ccc(OCCCN2CC[C@@H](CNC(=O)c3cc(Cl)c(Br)c4c3OCCCO4)[C@H](O)C2)cc1` (relative stereo) [compound 17], for which the IC50 on h5-HT4b was 5.62 nM. Besides, the “% metabolized” value in data set [1] is reported as 6%.

Molecule `CO[C@@H]1CN(CCCOc2ccc(C(=O)O)cc2)CC[C@H]1CNC(=O)c1cc(Cl)c(Cl)c2c1OCCCO2` (relative stereo) [compound 20] registered a melting point of 200 °C. Besides, the IC50 at h5-HT4b is 7.76 nM.

For the molecule `Cc1cc2c(c(C(=O)NC[C@@H]3CCN(CCCOc4ccccc4C(=O)O)C[C@H]3O)c1)OCCCO2` [Co. No. 1], the melting point was found to be 114 °C.

In the case of `Cc1cc2c(c(C(=O)NC[C@@H]3CCN(CCCOc4ccccc4C(=O)O)C[C@H]3O)c1)OCCCO2` [compound 1], the IC50 at h5-HT4b is 120 nM.

`Cc1cc2c(c(C(=O)NC[C@@H]3CCN(CCCCOc4ccc(C(=O)O)cc4)C[C@H]3O)c1)OCCCO2` [compound 2] returned a melting point of 188 °C. Besides, the IC50 on h5-HT4b was 9.55 nM. The “% metabolized” value in data set [1] turned out to be 6%.

Consider `Cc1ccc(C(=O)NC[C@@H]2CCN(CCCCOc3ccc(C(=O)O)cc3)C[C@H]2O)c2c1OCCCO2` [compound 3], for which the melting point came to 170 °C. The IC50 on h5-HT4b is 4.9 nM. In addition, the “% metabolized” value in data set [1] turned out to be 16%.

Molecule `O=C(O)c1ccc(OCCN2CC[C@@H](CNC(=O)c3cc(Cl)cc4c3OCCCO4)[C@H](O)C2)cc1` [compound 4] returned a melting point of 220 to 225 °C. At h5-HT4b, the IC50 is 14.5 nM.

In the case of `O=C(O)c1ccc(OCCCCN2CC[C@@H](CNC(=O)c3cc(Cl)cc4c3OCCCO4)[C@H](O)C2)cc1` [compound 5], the melting point amounted to 190 °C. In addition, at h5-HT4b, the IC50 is 5.13 nM. For the same molecule, the “% metabolized” value in data set [1] turned out to be 15%.

Molecule `Cc1cc2c(c(C(=O)NC[C@@H]3CCN(CCOc4ccc(C(=O)O)cc4)C[C@H]3O)c1)OCCCO2` [compound 6] showed a melting point of 175 °C. For the same molecule, the IC50 on h5-HT4b was 63.1 nM.

As for `Cc1ccc(C(=O)NC[C@@H]2CCN(CCOc3ccc(C(=O)O)cc3)C[C@H]2O)c2c1OCCCO2` [compound 8], the IC50 on h5-HT4b was 42.7 nM.

In turn, `O=C(O)c1ccc(OCCCN2CCC(CNC(=O)c3cc(Cl)cc4c3OCCCO4)C(O)C2)cc1` (stereo not shown) [compound 9] had a melting point of 122 °C. Moreover, the IC50 on h5-HT4b was 11.2 nM. Moreover, the “% metabolized” value in data set [1] came to 7.5%.

In turn, `Cc1ccc(C(=O)NC[C@@H]2CCN(CCCOc3cccc(C(=O)O)c3)C[C@H]2O)c2c1OCCCO2` [compound 11] displayed a melting point of 120 °C. In addition, on h5-HT4b, the IC50 is 8.51 nM. Moreover, the “% metabolized” value in data set [1] turned out to be 1%.

`Cc1cc2c(c(C(=O)NCC3CCN(CCCOc4cccc(C(=O)O)c4)CC3O)c1)OCCCO2` (stereo not shown) [compound 12] gave a melting point of 122 °C. Also, the IC50 at h5-HT4b is 23.4 nM. Besides, the “% metabolized” value in data set [1] was found to be 0%.

`Cc1ccc(C(=O)NC[C@@H]2CCN(CCCOc3ccc(C(=O)O)cc3)C[C@H]2O)c2c1OCCCO2` [compound 14] had a melting point of 155 °C. For the same molecule, the IC50 on h5-HT4b was 8.71 nM. Moreover, in data set [1], the “% metabolized” value worked out at 0%.

`O=C(O)c1ccc(OCCCN2CCC(CNC(=O)c3cc(Cl)c(Cl)c4c3OCCCO4)C(O)C2)cc1` (stereo not shown) [compound 16]: the IC50 on h5-HT4b is 7.59 nM. In data set [1], the “% metabolized” value amounted to 3%.

As to `COc1ccc(C(=O)NCC2CCN(CCCOc3ccc(C(=O)O)cc3)CC2OC)c2c1OCCCO2` (stereo not shown) [compound 21], the melting point lay within 179.4 to 189.2 °C. For the same molecule, the IC50 on h5-HT4b is 66.1 nM.

Regarding `COC1CN(CCCOc2ccc(C(=O)O)cc2)CCC1CNC(=O)c1cc(C)cc2c1OCCCO2` (stereo not shown) [compound 22], the IC50 at h5-HT4b is 13.5 nM. The “% metabolized” value in data set [1] worked out at 6%.
